≈ marks a conversion by molar mass, not a printed value.
Tests used:
Format in all cases: functional
Bacillus subtilis = assay: Antimicrobial activity against Bacillus subtilis ATCC 43223
Staphylococcus aureus [1] = assay: Antimicrobial activity against Staphylococcus aureus ATTC 6538P
Staphylococcus aureus [2] = assay: Antimicrobial activity against methicillin-resistant Staphylococcus aureus ATTC 33591
Enterococcus faecalis = assay: Antimicrobial activity against vancomycin-resistant Enterococcus faecalis VRE ATCC 51575
Klebsiella pneumoniae = assay: Antimicrobial activity against Klebsiella pneumoniae ATCC 10031
Pseudomonas aeruginosa = assay: Antimicrobial activity against Pseudomonas aeruginosa ATCC 9027

**Q.** `CC(C)=C1CC[C@@H](C)[C@@](C)(Cc2c[nH]c3ccccc23)[C@@H]1CCC(=O)O` [SUAVEOLINDOLE] was tested. Which MIC (Bacillus subtilis) did it give?
**A.** 4 mg/L (≈ 11.3 µM)

**Q.** And the MIC (Staphylococcus aureus [1])?
**A.** 8 mg/L (≈ 22.6 µM)

**Q.** And the MIC (Staphylococcus aureus [2])?
**A.** 8 mg/L (≈ 22.6 µM)

**Q.** And the MIC (Enterococcus faecalis)?
**A.** > 32 mg/L

**Q.** What about the MIC (Klebsiella pneumoniae) of the same compound?
**A.** > 128 mg/L

**Q.** And the MIC (Pseudomonas aeruginosa)?
**A.** > 128 mg/L

— ChEMBL document CHEMBL1142573, “Suaveolindole, a new mass-limited antibacterial indolosesquiterpene from Greenwayodendron suaveolens obtained via high-throughput natural products chemistry methods” (2005)
